# Reference: US9352004B2, “Muscle-derived cells (MDCs) for treating muscle- or bone-related injury or dysfunction” (University of Pittsburgh—Of the Commonwealth System of …, priority 1998, dated 2016)
# Entries after “also recorded” stand apart in the source; their conditions may differ. Marks after values point to notes of the source that are not given here.
# What was measured:
# [1] = tested on: bladder; conditions: rat, in vivo
# Procedure: Micturition Pattern Measurement: Urination pattern profiles were obtained using a specialized metabolic cage which deflects voided urine for collection and quantification over a 24 hour period. Micturition parameters evaluated in the described experiments included total urine output/24 hours, number of micturitions/24 hours and mean volume per micturition (M. D. Chancellor et al., 1994, J. Urol., 151:250-254; T. Watanabe et al., 1996, J. Urol., 156:1507-1510).
# To first assess the role of intravesicle NO on cyclophosphamide-induced cystitis, female S.D. rats received a single intraperitoneal injection of CYP (100 mg/kg) or vehicle. Voiding parameters (mean voided volume and number of voids) were then monitored for 24 hours in a metabolic cage. Forty-eight hours after CYP injection, bladder function was studied using continuous saline infusion (0.04 ml/min) cystometry via PE-50 transurethral catheter under urethane anesthesia.
# [2] = tested on: bladder wall; assay type: in vivo, rat; conditions: 100 μM TBH4, control areas of the bladder
# Procedure: For gene therapy experiments, myoblasts were transduced with the adenovirus containing the human inducible nitric oxide synthase (iNOS) gene at a multiplicity of infection of 50 (MOI=50) and were injected into the bladder and studied after 2 to 7 days.
# The bladder was injected with a similar solution; however, the cell concentration ranged from 1.33×10^5 to 1×10^6 cells per 10 μl injection. Transduced myoblasts were prepared by incubating them for 24 hours with adenovirus vector containing the iNOS gene at a multiplicity of infection of 50 virus particles per cell. Immunohistochemical staining was performed on the cultured cells to ensure adequate infection and iNOS protein production.
# NO release in the bladder and penis was measured by placing the tip of a Naflon-coated porphyrinic microsensor (dia. 10 μM; detection limit, 5 nM; response time, 1 ms) directly on the bladder surface (mucosal and serosal) and on the corporal cavernosum, respectively.
# [3] = tested on: myoblasts; assay: Effect of growth factors on myoblast proliferation and fusion in vitro; assay type: cell-based; conditions: 1, 10 and 100 ng/ml, 48 and 96 hours
# Procedure: Several growth factors, including acidic and basic fibroblast growth factors (aFGF and bFGF); epidermal growth factor (EGF); insulin-like growth factor-1 (IGF-1); platelet derived growth factor (PDGF); transforming growth factor β or α (TGF-β or TGF-α); and nerve growth factor (NGF) have been investigated for their ability to enhance the myogenic activity of muscle cells in vitro. Myoblasts were cultured with these trophic factors at different concentrations (1, 10 and 100 ng/ml), and the myoblast proliferation and differentiation were monitored at 48 and 96 hours post-incubation.
# [4] = tested on: meniscal fibrochondrocytes; assay: Growth factors on meniscal fibrochondrocytes in vitro; assay type: cell-based; conditions: for expression of collagen and non-collagen proteins: meniscal fibrochondrocytes
# Text: In vitro data detail the effects of numerous growth factors on fibroblast proliferation and collagen production.
# [5] = tested on: injured muscle; assay: Muscle healing and twitch/tetanic strength in vivo after muscle contusion, laceration or strain; set-up: species or system mouse; key to twitch strength / tetanic strength: (+) improvement in strength vs. non-injected muscles; (−) no improvement in strength vs. non-injected muscles; conditions: for number of regenerating myofibers in vivo: direct injection into injured muscle (laceration, contusion, strain)
# Procedure: Briefly, the muscle laceration was performed by cutting the gastrocnemius muscle of a mouse with scissors at 60% of its length from its distal insertion, 75% of its width, and 50% of its thickness. The muscle contusion was made by dropping a 16 gram ball through an impactor from a height of 100 centimeters onto the mouse's gastrocnemius muscle, and the muscle strain was performed by elongating the muscle-tendon unit to a pre-determined strain point at the rate of 1 cm/min.
# In order to evaluate muscle healing following injury, histological staining (hematoxylin-eosin) in conjunction with immunohistochemical techniques were employed to assess the expression of desmin and vimentin. Since desmin is a cytoskeletal protein uniformly expressed in regenerating myofibers, it has been used to specifically locate regenerating myofibers. Vimentin is expressed in mononucleated fibrocytes and macrophages and has been used herein as a marker for fibrosis. […]
# [6] = tested on: urethral smooth muscle; assay: Intraurethral NO donors: urethral perfusion pressure and isovolumetric bladder pressure; conditions: rat, in vivo, iv
# Procedure: To first assess the role of NO donors on smooth muscle, urethral perfusion pressure and isovolumetric bladder pressure were measured with catheters inserted through the bladder dome in urethane anesthetized female S.D. rats (250-300 grams), (n=9). The catheter assembly was wedged in the bladder neck to block passage of fluid between the bladder and urethra without affecting the nerve supply to the organs. The external urethra was not catheterized. Responses were examined in the control state at an urethral saline infusion speed of 0.075 ml/min. After blocking striated urethral sphincter with intravenous alpha-bungarotoxin administration (100 mcg/kg), intraurethral drugs were administered.
compound,measurement,setting,value
"O=P1(N(CCCl)CCCl)NCCCO1 (stereo not shown) [CYP, cyclophosphamide]",number of micturitions during the 24 hours after CYP injection,[1],117±86
same,total micturition volume,[1],20.5 ± 9.2 mL
same,voiding frequency after 7 days,[1],38±4
"C[C@H](O)[C@H](O)[C@H]1CNc2nc(N)[nH]c(=O)c2N1 [TBH4, tetrahydrobiopterin]",duration of NO release spike,[2],< 5 s
same,spike in NO release,[2],1 to 5 nM
EGF: epidermal growth factor,Fusion (differentiation into myotubules),[3],Inhibit
same,Proliferation,[3],Inhibit
same,proliferation of the meniscal fibrochondrocytes,[4],improve
same,expression of collagen and non-collagen proteins,[4],improve
IGF: insulin-like growth factor-1,Fusion (differentiation into myotubules),[3],Stimulate
same,Proliferation,[3],Stimulate
same,Fusion (differentiation into myotubules),[3]; listed as IGF-1,increase myoblast differentiation into myotubules
same,Proliferation,[3]; listed as IGF-1,significantly enhanced
same,tetanic strength,[5]; Muscle contusion,+/+
same,twitch strength,[5]; Muscle contusion,+/+
same,tetanic strength,[5]; Muscle laceration,+/+
same,twitch strength,[5]; Muscle laceration,+/+
same,tetanic strength,[5]; Muscle strain,+/+
same,twitch strength,[5]; Muscle strain,+/+
same,number of regenerating myofibers in vivo,[5],increase the number of regenerating myofibers
NGF: nerve growth factor,Fusion (differentiation into myotubules),[3],increase myoblast differentiation into myotubules; also recorded: Stimulate
same,Proliferation,[3],significantly enhanced; also recorded: Stimulate
same,tetanic strength,[5]; Muscle contusion,+/+*
same,twitch strength,[5]; Muscle contusion,+/+*
same,tetanic strength,[5]; Muscle laceration,−/−
same,twitch strength,[5]; Muscle laceration,−/−
same,tetanic strength,[5]; Muscle strain,−
same,twitch strength,[5]; Muscle strain,+
same,number of regenerating myofibers in vivo,[5],increase the number of regenerating myofibers
PDGF,Fusion (differentiation into myotubules),[3],Inhibit
same,Proliferation,[3],Inhibit
same,proliferation of the meniscal fibrochondrocytes,[4],improve
same,expression of collagen and non-collagen proteins,[4],improve
TGF-α: transforming growth factor α,Fusion (differentiation into myotubules),[3],Inhibit
same,Proliferation,[3],Inhibit
same,proliferation of the meniscal fibrochondrocytes,[4],improve
same,expression of collagen and non-collagen proteins,[4],improve
TGF-β,Fusion (differentiation into myotubules),[3],Inhibit
same,Proliferation,[3],Inhibit
a-FGF: acidic fibroblast growth factor,Fusion (differentiation into myotubules),[3],Stimulate
same,Proliferation,[3],Inhibit
same,Fusion (differentiation into myotubules),[3]; listed as aFGF,increase myoblast differentiation into myotubules
alpha-bungarotoxin,high frequency oscillations of urethral pressure,[6],abolished
b-FGF: basic fibroblast growth factor,Fusion (differentiation into myotubules),[3],Stimulate
same,Proliferation,[3],significantly enhanced; also recorded: Stimulate
same,Fusion (differentiation into myotubules),[3]; listed as bFGF,increase myoblast differentiation into myotubules
same,tetanic strength,[5]; Muscle contusion,+/+
same,twitch strength,[5]; Muscle contusion,+/+
same,tetanic strength,[5]; Muscle laceration,+/+
same,twitch strength,[5]; Muscle laceration,+/+
same,tetanic strength,[5]; Muscle strain,+/+
same,twitch strength,[5]; Muscle strain,+/+
same,number of regenerating myofibers in vivo,[5],increase the number of regenerating myofibers
same,proliferation of the meniscal fibrochondrocytes,[4],improve
same,expression of collagen and non-collagen proteins,[4],improve
